According to US12552806B2, “Androgen receptor regulation by small molecule enantiomers” (University of Southern California, priority 2020, dated 2026):
Substitutions are numbered along the chain they refer to. “Also recorded” adds a separate entry of the source. Read-outs that look alike come from different tables or passages of the source.

Legend:
AR T878A = biological target: T1, AR T878A (Homo sapiens, UniProt P10275, T878A); assay: cell-based; format: cell-based
T1 construct: LNCaP cells expressing AR T878A; endogenous in cells; host or cells: LNCaP-luc (LNCaP stably carrying the Cignal Lenti AR Reporter)
T1 sequence (P10275 1-920 T878A): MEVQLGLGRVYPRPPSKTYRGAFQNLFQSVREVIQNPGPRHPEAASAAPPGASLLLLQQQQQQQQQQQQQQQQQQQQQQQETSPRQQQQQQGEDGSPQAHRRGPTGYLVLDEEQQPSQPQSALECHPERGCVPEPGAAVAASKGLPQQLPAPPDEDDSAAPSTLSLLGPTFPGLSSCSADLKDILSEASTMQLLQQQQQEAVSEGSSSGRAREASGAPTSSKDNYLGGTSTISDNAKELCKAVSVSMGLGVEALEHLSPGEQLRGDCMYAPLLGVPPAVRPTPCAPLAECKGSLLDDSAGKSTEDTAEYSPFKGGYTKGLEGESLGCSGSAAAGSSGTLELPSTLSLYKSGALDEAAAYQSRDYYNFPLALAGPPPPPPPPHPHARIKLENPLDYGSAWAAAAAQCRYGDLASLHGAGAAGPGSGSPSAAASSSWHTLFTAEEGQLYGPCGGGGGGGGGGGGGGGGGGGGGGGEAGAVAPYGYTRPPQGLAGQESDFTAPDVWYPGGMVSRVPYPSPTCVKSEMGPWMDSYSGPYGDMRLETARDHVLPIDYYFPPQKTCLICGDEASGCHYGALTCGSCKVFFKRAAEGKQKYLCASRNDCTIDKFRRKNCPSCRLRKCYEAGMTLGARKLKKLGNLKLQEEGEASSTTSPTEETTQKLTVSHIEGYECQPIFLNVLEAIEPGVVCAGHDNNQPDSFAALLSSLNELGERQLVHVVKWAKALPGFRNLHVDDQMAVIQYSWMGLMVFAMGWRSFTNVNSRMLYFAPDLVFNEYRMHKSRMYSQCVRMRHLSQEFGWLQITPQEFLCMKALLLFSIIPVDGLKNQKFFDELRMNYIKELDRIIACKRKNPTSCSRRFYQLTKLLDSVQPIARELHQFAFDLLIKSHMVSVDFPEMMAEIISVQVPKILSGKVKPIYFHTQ
Description: We generated a LNCaP cell line stably expressing luciferase controlled by androgen response elements (ARE-luciferase).
Cell Culture and Treatments. The LNCaP cell line were obtained from ATCC, cultured in RPMI1640 (Corning) supplemented with 10% heat-inactivated GemCell bovine serum (Gemini Bio-Products) and Penicillin-Streptomycin (Gemini Bio-Products). Cell lines stably expressing ARE-luciferase (LNCaP-luc) was generated using Cignal Lenti AR Reporter (Qiagen) and was continuously cultured with 500 ng/mL Puromycin (Gibco) for positive selection. Cells were maintained at 37° C. in a humidified incubator with 5% carbon dioxide. All cell lines were authenticated using NIST approved short tandem repeat (STR) DNA profiling performed by the University of Arizona Genetics Core and routinely tested negative for mycoplasma.
Luciferase assay. LNCaP-luc cells were seeded in clear flat bottom white polystyrene 96-well plates (Corning) at a density of 12,000 cells/well. […] Dose-response curves were fit using the delta method and t-distribution (n=1). Compounds are tested up to 10 μM.

[1] = Microsome stability assay; format: in vitro ADME, human; settings: for toxic metabolite BMS-501949 detected in LCMS / active metabolite detected in LCMS: 10 μM drug; for toxic metabolite BMS-501949 detected in LCMS: 8 h incubation, o-fluoro-BMS-501949 for EITM-1707; for active metabolite detected in LCMS: Unnamed metabolite (predicted active) for EITM compounds, BMS-570511 for BMS-641988, 8 h; for half-life at 1 μM / microsomal CLint at 1 μM: human, pooled human liver microsomes, pH 7.4, liver microsomes; for half-life at 1 μM: 1 μM drug, read-out: T½; for microsomal CLint at 1 μM: read-out: rate of intrinsic clearance
Method: Microsome stability assays. In vitro metabolism was determined as described previously. Specifically, to measure metabolism of parent compounds, the higher throughput protocol was applied, in which 0.5 mg/ml pooled human liver microsomes (Sigma) were mixed with 1 μM drugs and phosphate buffer (0.1 M, pH 7.4) in 96-well plates. Enzymatic reactions were started by adding 1 mM NADPH (Sigma Aldrich) followed by incubation at 37° C. Fractions were quenched by transfer to ice-cold acetonitrile after the indicated incubation times. Samples were analyzed using liquid chromatography-mass spectrometry (LC/MS-MS). Rates of intrinsic clearance were determined from the amount of the parent compound consumed per min per mg of microsomal protein as described previously. To analyze accumulating metabolites, the basic protocol was used, and microsomes were incubated with 10 μM drugs for 8 h.

LNCaP cells = assay: LNCaP cell viability assay (CellTiter-Glo); format: cell-based; settings: 1 and 10 μM drug + 60 pM R1881, 5 days
Method: LNCaP cell viability assay. Cells were seeded into 96-well fibronectin coated (1 ug/cm^2) plates (CellCarrier, PerkinElmer) at a density of 5,000 cells/well. […] Drug-treated cells were lysed with CellTiter-Glo 3D Cell Viability Assay (Promega) and transferred to white 96-well plates (Corning). Luminescence was measured utilizing GloMax 96 Microplate Luminometer (Promega). Analysis was conducted in the R statistical environment (v 3.6.0). […] Visualizations were facilitated by the ggplot2 package (v3.2.1), with standard error (S.E.) shown where appropriate.

GFP-AR = biological target: T2, GFP-AR (Homo sapiens, UniProt P10275); assay: Confocal microscopy of PC3 GFP-AR cells (nuclear hyperspeckling); format: cell-based; settings: 10 μM enantiomer 180 min, 1 nM R1881 90 min
T2 construct: expressed in transfected cells; host or cells: PC3
T2 sequence (P10275 1-920): T1 sequence (P10275 1-920 T878A) with A878T
Method: Initial compound testing was performed with PC3 GFP-AR cells and confocal microscopy. First, we tested purified BMS enantiomers (FIG. 6A).
(§1) PC3 and VCaP cell lines were obtained from ATCC and cultured as recommended. Generation and culture of PC3 GFP-AR cells were described previously (14). ARE-luciferase cells were generated using Cignal Lenti AR Reporter (Qiagen). Cell lines were authenticated using NIST-approved short tandem repeat DNA profiling and tested negative for mycoplasma. Drug treatments were conducted after overnight culture in phenol red-free media supplemented with charcoal:dextran stripped FBS.
Confocal Microscopy. PC3 GFP-AR cells were seeded and stained overnight with SiR-DNA ([…]).

[2] = system: AR-regulated genes in VCaP cells; assay: RT-qPCR array of AR target genes in VCaP cells; format: cell-based; settings: 82 AR target genes, vs NTC and DHT
Method: To test for corresponding transcriptional activation, we performed assays in cells expressing ARE-luciferase. […] Next, we examined gene expression in VCaP cells, a hormone-responsive but independent model of CRPC highly expressing AR.
RT-qPCR Array. RNA was isolated using the Illustra RNAspin Mini Kit (GE Healthcare). RNA was transcribed to cDNA using RT2 First Strand Kit (Qiagen). RT-qPCR was performed using Biorad CFX Connect on a RT2 Profiler PCR Array Human Androgen Receptor Signaling Targets (Qiagen).

VCaP cells = assay: VCaP viability assay (CellTiter-Glo); format: cell-based
Method: as §1
Luminometer Assays. For ARE-luciferase, luciferase substrate was added to lysed cells after 24-h treatment. For viability, cells were lysed with CellTiter-Glo 3D Cell Viability Assay (Promega) after 6 d of treatment. Measurements were performed in 96-well plates (Corning) using a GloMax 96 Microplate Luminometer (Promega).

SMILES | AR agonism / antagonism in LNCaP ARE-luciferase, in words (AR T878A) | EC50 (AR T878A) [nM] | ED50 (AR T878A) | Emax (AR T878A) | toxic metabolite BMS-501949 detected in LCMS [1] | active metabolite detected in LCMS [1] | half-life at 1 μM [1] [h] | microsomal CLint at 1 μM [1] [µL/min/mg] | LNCaP proliferation / viable cells, in words (LNCaP cells) | nuclear hyperspeckling, in words (GFP-AR) | AR-dependent gene expression, in words [2] | Emax (AR T878A; LNCaP) [%] | R1881-induced growth, in words (VCaP cells; 10 μM drug + 1 nM R1881, 6-d treatment) | (S)-enantiomer fraction that halved the drug effect, cell viability (VCaP cells; 10 μM mixture + 1 nM R1881, 6 d, 95% CI (0.2%, 0.4%)) [%] | (S)-enantiomer fraction that rescued the proliferation phenotype, cell viability (VCaP cells; 10 μM mixture + 1 nM R1881, 6 d, 95% CI (0.7%, 3.7%)) [%] | IC50 (VCaP cells; Homo sapiens, VCaP) [nM] | toxic metabolite BMS-501949 detected in LCMS ([1]; listed as (R)-EITM-1702)
CCS(=O)(=O)N[C@@H]1C[C@@]2(C)O[C@]1(C)[C@@H]1C(=O)N(c3ccc(C#N)c(C(F)(F)F)c3)C(=O)[C@@H]12 [BMS-641988, N-((3aR,4R,5R,7R,7aS)-2-(4-cyano-3-(trifluoromethyl)phenyl)-4,7-dimethyl-1,3-dioxooctahydro-1H-4,7-epoxyisoindol-5-yl)ethanesulfonamide, reference compound] | potent agonist in LNCaP cells; also recorded: induced ARE-luciferase without addition of R1881 | 94 ± 22 | agonist | agonist | accumulated and yes | yes | 1.44 | 10.1 | promoted proliferation | inhibited R1881-induced hyperspeckling | – | – | – | – | – | – | –
CCS(=O)(=O)N[C@H]1C[C@]2(C)O[C@@]1(C)[C@H]1C(=O)N(c3ccc(C#N)c(C(F)(F)F)c3)C(=O)[C@H]12 [(S)-BMS, N-((3aS,4S,5S,7S,7aR)-2-(4-cyano-3-(trifluoromethyl)phenyl)-4,7-dimethyl-1,3-dioxooctahydro-1H-4,7-epoxyisoindol-5-yl)ethanesulfonamide] | – | – | – | – | – | – | – | – | – | caused substantial hyperspeckling, comparable to that of R1881 | – | – | – | – | – | – | –
CC(O)c1cc(C(=O)N[C@H]2C[C@]3(C)O[C@@]2(C)[C@H]2C(=O)N(c4ccc(C#N)c(C(F)(F)F)c4F)C(=O)[C@H]23)n[nH]1 (stereo partly drawn) [(S)-EITM-1707, N-((3aS,4S,5S,7S,7aR)-2-(4-cyano-2-fluoro (trifluoromethyl)phenyl)-4,7-dimethyl-1,3-dioxooctahydro-1H-4,7-epoxyisoindol-5-yl)-5-(1-hydroxyethyl)-1H-pyrazole-3-carboxamide] | – | – | – | – | – | – | – | – | – | – | rescued the castration phenotype, mimicking DHT | – | – | – | – | – | –
C[C@]12O[C@](C)(C[C@H]1NC(=O)c1cc[nH]n1)[C@H]1C(=O)N(c3ccc(C#N)c(C(F)(F)F)c3)C(=O)[C@H]12 [EITM-1702, N-((3aR,4R,5R,7R,7aS)-2-(4-cyano-3-(trifluoromethyl)phenyl)-4,7-dimethyl-1,3-dioxooctahydro-1H-4,7-epoxyisoindol-5-yl)-1H-pyrazole-3-carboxamide] | robust antagonistic activities without notable agonism | 570 | – | – | not detected | yes | 0.944 | 15.3 | almost phenocopying castrate conditions; also recorded: inhibited the growth of LNCaP prostate cancer cells | – | – | 8 | visibly suppressed R1881-induced growth | 0.3 | 2.2 | 540 | no
